According to US7858647B2, “N-[1,3,4]-thiadiazol-2-yl-benzene sulfonamides, pharmaceutical compositions thereof and methods for their therapeutic use” (Sanofi-Aventis, priority 2005, dated 2010):
Where two headings read alike, the source gives them in different places.

Assays:
[1] = two weeks clinical trials in healthy volunteers; cited from earlier work
[2] = cynomolgus monkeys; cited from earlier work
[3] = rhesus monkeys; cited from earlier work
human PPARdelta = target: T1, human PPARdelta (Homo sapiens, UniProt Q03181); experiment: Cellular PPARdelta assay (luciferase reporter, stably transfected HEK cell line); assay type: cell-based; conditions: GR-GAL4-humanPPARdelta-LBD
T1 construct: amino acids S139-Y441; expressed in transfected cells
T1 sequence (Q03181 139-441): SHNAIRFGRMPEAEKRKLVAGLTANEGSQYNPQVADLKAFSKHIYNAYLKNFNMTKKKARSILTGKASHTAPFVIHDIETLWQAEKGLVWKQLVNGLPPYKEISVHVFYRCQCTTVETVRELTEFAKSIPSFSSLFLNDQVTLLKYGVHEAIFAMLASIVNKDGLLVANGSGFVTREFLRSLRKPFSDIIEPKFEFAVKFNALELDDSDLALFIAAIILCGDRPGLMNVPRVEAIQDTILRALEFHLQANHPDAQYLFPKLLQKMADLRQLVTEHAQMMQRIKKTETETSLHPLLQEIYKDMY
Procedure: The activity of PPARalpha agonists is determined in a 3-day assay which is described below:
The PPARalpha reporter cell line is cultivated to 80% confluence in DMEM (#41965-039, Invitrogen) which is mixed with the following additions: 10% cs-FCS (fetal calf serum; #SH-30068.03, Hyclone), 0.5 mg/ml zeocin (#R250-01, Invitrogen), 0.5 mg/ml G418 (#10131-027, Invitrogen), 1% penicillin-streptomycin solution (#15140-122, Invitrogen) and 2 mM L-glutamine (#25030-024, Invitrogen). The cultivation takes place in standard cell culture bottles (#353112, Becton Dickinson) in a cell culture incubator at 37° C. in the presence of 5% CO2. The 80%-confluent cells are washed once with 15 ml of PBS (#14190-094, Invitrogen), treated with 3 ml of trypsin solution (#25300-054, Invitrogen) at 37° C. for 2 min, taken up in 5 ml of the DMEM described and counted in a cell counter. After dilution to 500.000 cells/ml, 35,000 cells are seeded in each well of a 96 well microtiter plate with a clear plastic base (#3610, Corning Costar). The plates are incubated in the cell culture incubator at 37° C. and 5% CO2 for 24 h.
PPARalpha Agonists to be Tested are Dissolved in DMSO in a Concentration of 10 mM. This stock solution is diluted in DMEM (#41965-039, Invitrogen) which is mixed with 5% cs-FCS (#SH-30068.03, Hyclone), 2 mM L-glutamine (#25030-024, Invitrogen) and the previously described antibiotics (zeocin, G418, penicillin and streptomycin). Test substances are tested in 11 different concentrations in the range from 10 μM to 100 pM.
The medium of the PPARalpha reporter cell line seeded on day 1 is completely removed by aspiration, and the test substances diluted in medium are immediately added to the cells. The dilution and addition of the substances is carried out by a robot (Beckman FX). The final volume of the test substances diluted in medium is 100 μl per well of a 96 well microtiter plate. The DMSO concentration in the assay is less than 0.1% v/v in order to avoid cytotoxic effects of the solvent.
The assay plates are incubated in an incubator at 37° C. and 5% CO2 for 24 h.
The PPARalpha reporter cells treated with the test substances are removed from the incubator, and the medium is aspirated off. The cells are lyzed by pipetting 50 μl of Bright Glo reagent (from Promega) into each well of a 96 well microtiter plate. After incubation at room temperature in the dark for 10 minutes, the microtiter plates are measured in the luminometer (Trilux from Wallac). The measuring time for each well of a microtiter plate is 1 sec.
The raw data from the luminometer are transferred into a Microsoft Excel file. Dose-effect plots and EC50 values of PPAR agonists are calculated using the XL.Fit program as specified by the manufacturer (IDBS).
The potency of substances which bind to human PPARdelta and activate it in an agonistic manner is analyzed using a stably transfected HEK cell line (HEK=human embryo kidney) which is referred to here as PPARdelta reporter cell line. In analogy to the assay described for PPARalpha, the PPARdelta reporter cell line also contains two genetic elements, a luciferase reporter element (pdeltaM-GAL4-Luc-Zeo) and a PPARdelta fusion protein (GR-GAL4-humanPPARdelta-LBD) which mediates expression of the luciferase reporter element depending on a PPARdelta ligand. The stably and constitutively expressed fusion protein GR-GAL4-humanPPARdelta-LBD binds in the cell nucleus of the PPARdelta reporter cell line via the GAL4 protein portion to the GAL4 DNA binding motifs 5′-upstream of the luciferase reporter element which is stably integrated in the genome of the cell line. There is only little expression of the luciferase reporter gene in the absence of a PPARdelta ligand if fatty acid-depleted fetal calf serum (cs-FCS) is used in the assay. PPARdelta ligands bind and activate the PPARdelta fusion protein and thereby stimulate expression of the luciferase reporter gene. […]

[4] = diabetic animal model; cited from earlier work
[5] = obese, insulin resistant rhesus monkeys, cited from earlier work

**Q.** Which plasma lipids [1] does the source give for CCCc1c(OCCCSc2nnc(SCC(=O)O)s2)ccc(C(C)=O)c1O [YM-16638] here?
**A.** acts in a similar manner

**Q.** And the plasma lipids [2]?
**A.** significantly lowers

**Q.** What about the plasma lipids [3] of the same compound?
**A.** significantly lowers

**Q.** Which EC50 (human PPARdelta) does the source give for CCOc1cc(C(F)(F)F)ccc1C(=O)NCCc1ccc(S(=O)(=O)Nc2nnc(C(C)C)s2)cc1 [Example 16, 2-Ethoxy-N-{2-[4-(5-isopropyl-[1,3,4]thiadiazol-2-ylsulfamoyl)-phenyl]-ethyl}-4-trifluoromethyl-benzamide] here?
**A.** 46 nM

**Q.** With CCCc1c(OCCCOc2ccc(OCC(=O)O)cc2)ccc(C(C)=O)c1O [Example L-165041] as the compound, how does the plasma cholesterol [4] read?
**A.** raises

**Q.** Which insulin levels ([5]; plasma) does the source give for Cc1cc(SCc2sc(-c3ccc(C(F)(F)F)cc3)nc2C)ccc1OCC(=O)O [GW501516] here?
**A.** decreases

**Q.** And the triglycerides ([5]; plasma)?
**A.** decreases

**Q.** What about the HDL-cholesterol [5] of the same compound?
**A.** raises

**Q.** And the “plasma LDL-cholesterol” value [5]?
**A.** decreases
